Experimental data from patent US8524978B2, “Composition for production of plant body having improved sugar content, and use thereof” (Japan Science and Technology Agency, priority 2007, dated 2013).
Entries after “also recorded” stand apart in the source; their conditions may differ.

Key:
Format in all cases: in vivo
Fragaria ananassa = test: Sugar content determination of Fragaria ananassa fruit with refractometer (Example 10); conditions: 50 mL of 0.2 or 0.5 mM GSSG, or 0.4 or 0.5 mM GSH, once a week at root; significance level 5%
Protocol: First, Fragaria ananassa seedlings were transplanted to a planter. In the planter, 6 L of vermiculite (ASAHI INDUSTRIES Co., LTD.), 3 L of KUREHA horticultural soil (KUREHA CORPORATION), and 3 L of vermiculite were layered as a lower, middle, and upper layers, respectively.
During cultivation of Fragaria ananassa plants, 50 mL of 0.2 mM or 0.5 mM GSSG or 50 mL of 0.4 mM or 0.5 mM GSH (adjusted with 0.1N NaOH to be at pH7) was applied once a week at a root per plant. The plants were grown for 63 days without being subjected to bud removal. For comparison, a Fragaria ananassa plant was grown under the same condition, except that GSSG and GSH were not applied. To the plants of any condition, 3 g of Kumiai phosphorate ammonium nitrate potassium S-604 (Chisso Asahi Fertilizer Co., Ltd.) was applied as an additional fertilizer once in 2 weeks.
Further, the fruit obtained was subjected to sugar content determination using “Pocket” Refractometer APAL-1 (ATAGO CO., LTD.). For comparison, fruit not applied with GSSG or GSH was also subjected to the sugar content determination. […] In FIG. 7, the vertical scale indicates sugar content (Brix, unit: %).

Citrus unshiu = test: Sugar content determination of Citrus unshiu fruit with refractometer (Example 9); conditions: leaf surface coated with 0.5 mM one week before harvest; vs no GSSG; ANOVA 5%
Protocol: In the present example, Citrus unshiu was cultivated. Specifically, one week before an expected date of harvesting Citrus unshiu fruit, a surface of a leaf on a branch having the fruit to be harvested was coated with 0.5 mM GSSG. The fruit was harvested on the expected date.
Next, the fruit harvested was subjected to a sensory test of sugar content. As a result, it was determined that the fruit applied with GSSG increased in sugar content and decreased in acidity. Further, it was determined that the fruit applied with GSSG increased in weight. Furthermore, the fruit obtained was subjected to sugar content determination using “Pocket” Refractometer APAL-1 (ATAGO CO., LTD.). For comparison, fruit applied with no GSSG was also subjected to the sugar content determination. […] In FIG. 6, the vertical scale indicates sugar content (Brix, unit: %).

Lycopersicum esculentum [1] = test: Sugar content determination of Lycopersicum esculentum fruit with refractometer (Example 2); conditions: 0.5 mM applied as in Example 1; compared to Cont and Cont2 Sunny conditions; ANOVA 5%
Text: Cultivated were Lycopersicum esculentum plants to which GSSG or GSH was applied by the method described in Example 1. Then, obtained fruit of the plants was subjected to sugar content determination using “Pocket” Refractometer APAL-1 (ATAGO CO., LTD.).
For comparison, Lycopersicum esculentum plants were cultivated under two types of conditions (referred to as “Cont” and “Cont2 Sunny”). In the Cont condition, Lycopersicum esculentum plants were cultivated by the same method as in Example 1, except that GSSG and GSH were not applied. In the Cont2 Sunny condition, a Lycopersicum esculentum plant was not applied with GSSG or GSH and was independently cultivated at a site sufficiently irradiated with sunlight so that illuminance on the Lycopersicum esculentum plant becomes 100%. In the Cont condition and a condition in which GSSG or GSH was applied, the plants were planted at intervals of 40 cm to 50 cm. In this case, a plant may intercept light irradiating another plant. Therefore, illuminance on such plants becomes less than 100%.
In the condition in which GSSG was applied, the condition in which GSH is applied, and the Cont condition, three Lycopersicum esculentum plants were cultivated, respectively. In the Cont2 Sunny condition, one Lycopersicum esculentum plant was cultivated. […]

Lycopersicum esculentum [2] = test: Cultivation of Lycopersicum esculentum with GSSG or GSH, sensory tests of fruit (Example 1); conditions: 50 mL of 0.5 mM at root twice a week, 60 days
Text: In the present example, Lycopersicum esculentum was cultivated with use of GSSG or GSH. Details of cultivation are described below.
First, Lycopersicum esculentum seedlings (TAKII & CO. Ltd., product name: Osama tomato reika) were transplanted into a hydroponic culture pot ( 1/2000 a). In the hidroponic culture pot, 6 L of vermiculite (ASAHI INDUSTRIES Co., LTD.), 3 L of KUREHA horticultural soil (KUREHA CORPORATION), and 3 L of vermiculite were layered as a lower, middle, and upper layers, respectively.
During the cultivation of Lycopersicum esculentum, 50 mL of 0.5 mM GSSG or 0.5 mM GSH (adjusted with 0.1N NaOH to be at pH 7) was applied twice a week at a root per plant. The Lycopersicum esculentum plants were grown for 60 days without being subjected to bud removal. Last 10 days was used as a harvest period for harvesting fruit of the plants. For comparison, a Lycopersicum esculentum plant was grown under the same condition, except that GSSG and GSH were not applied. To the plants of any condition, 3 g of Kumiai phosphorate ammonium nitrate potassium S-604 (Chisso Asahi Fertilizer Co., Ltd.) was applied as an additional fertilizer once in 2 weeks.
Next, the fruit harvested was subjected to sensory tests of sugar content and the like. As a result, it was determined that fruit of the plant applied with GSSG increased in sugar content compared to that of the plant not applied with GSSG or GSH. Further, it was determined that the plant applied with GSSG increased in number of fruit. It was determined that fruit of the plant applied with GSH increased in sugar content and acidity.

[3] = system: Zea mays L. var. saccharata Sturt; test: Cultivation of Zea mays L. var. saccharata Sturt with GSSG, sensory test (Example 4); conditions: 200 mL of 0.5 mM at root twice a week for 12 weeks
Text: In the present example, Zea mays L. var. saccharata Sturt was cultivated under a condition different from Example 3 in how to apply GSSG. First, a Zea mays L. var. saccharata Sturt seed (TAKII & CO. Ltd., product number: Canberra 90) was sown in vermiculite (ASAHI INDUSTRIES Co., LTD.). One week after sowing, a Zea mays L. var. saccharata Sturt plant was transplanted to a hydroponic culture pot described in Example 1. To the plant, 3 g of Kumiai phosphorate ammonium nitrate potassium S-604 (Chisso Asahi Fertilizer Co., Ltd.) was applied as an additional fertilizer 4 weeks and 6 weeks after the sowing.
During 12 weeks after germination, 200 mL of 0.5 mM GSSG was applied at a root of the plant twice a week. For comparison, a Zea mays L. var. saccharata Sturt plant was cultivated by the same method as in the present example, except that GSSG was not applied, and fruit thereof was harvested.
Fruit was harvested 12 weeks after the sowing and subjected to a sensory test of sugar content. As a result, it was determined that fruit of the plant applied with GSSG increased in sugar content compared to that of the plant applied with no GSSG. Further, it was determined that the plant applied with GSSG increased in size and number of fruit.

oxidized glutathione [GSSG]
sugar content of fruit (Brix), ANOVA versus fruit not applied (Fragaria ananassa): significant difference | sugar content of fruit (Brix) (Citrus unshiu): significantly improved | sugar content of fruit (Brix) (Lycopersicum esculentum [1]): significantly increased; also recorded: extremely high sugar content | number of fruit (Lycopersicum esculentum [2]): increased | sugar content of fruit (sensory test) (Lycopersicum esculentum [2]; compared to plant not applied with GSSG or GSH): increased | number of fruit [3]: increased | size of fruit [3]: increased | sugar content of fruit (sensory test) ([3]; vs no GSSG): increased
